Earlier results on 1 compound are cited in patent US9771618B2, “Methods for treating breast cancer” (Bioarray Genetics, Inc., priority 2009, dated 2017).

The subject of the data set is locally advanced breast cancer. To be noted: 24 tumors of the Chang, et al. dataset (10 of 24); response assessed after neoadjuvant chemotherapy.

Take `CC(=O)O[C@H]1C(=O)[C@@]2(C)[C@H]([C@H](OC(=O)c3ccccc3)[C@]3(O)C[C@H](OC(=O)[C@H](O)[C@@H](NC(=O)c4ccccc4)c4ccccc4)C(C)=C1C3(C)C)[C@]1(OC(C)=O)CO[C@@H]1C[C@@H]2O` [taxol, paclitaxel]: the “overall taxol sensitive rate” value is reported as 41.7%.
